# Laboratory results from patent US20260250318A1, “COMPOSITIONS AND METHODS FOR CROSSING THE BLOOD BRAIN BARRIER” (VOYAGER THERAPEUTICS, INC., priority 2022, published 2026).
# Tested on: brains, heart, liver, muscle, and DRG of the NHPs
# Assay: Maturation of TTM-001 and TTM-002 capsids, NGS enrichment in NHP tissues
# Format: in vivo
# Text: This Example describes maturation of the AAV9 capsid variants, TTM-001 (SEQ ID NO: 981 (amino acid) and 983 (DNA), comprising SEQ ID NO: 941 (encoded by SEQ ID NO: 942)) and TTM-002 (SEQ ID NO: 982 (amino acid) and 984 (DNA), comprising SEQ ID NO: […] (encoded by SEQ ID NO: 944)) in NHPs to further enhance their transduction and biodistribution in the central nervous system as well as other tissues, and evolve the AAV capsid variants to provide further cross-species compatibility. Two approaches were used to mature the TTM-001 and TTM-002 capsid sequences in order to randomize and mutate within and around the peptide insert comprised within loop IV of the capsid variant. […] In the first maturation approach, sets of three contiguous amino acids were randomized across the mutagenesis region in the TTM-001 and TTM-002 sequences, which spanned from position 450 to position 466, numbered according to SEQ ID NO: 981 and 982. In the second maturation approach, mutagenic primers were used to introduce point mutations at a low frequency, scattered across the mutagenesis region in the TTM-001 and TTM-002 sequences ranging from position 449 to position 466, numbered according to SEQ ID NO: 981 and 982. AAV capsid variants arising from each maturation approach for TTM-001 and TTM-002 were pooled together, for subsequent testing and characterization in NHPs.
# The library of pooled matured AAV capsid variants generated using the first maturation approach and the second maturation approach for the TTM-001 and TTM-002 AAV capsid variants were injected into two NHPs. […] Following RNA recovery and RT-PCR amplification, a systematic NGS enrichment analysis was performed to calculate the fold enrichment ratio relative to an AAV9 control, and the peptides comprised within the variants were identified.
# Following the RNA recovery and NGS analysis from the second maturation approach, approximately 680,000 capsid variants were identified. The 680,000 matured capsid variants were then filtered based on samples with a raw virus count greater than 10 and a coefficient of variance (CV) of less than 1, which was calculated for each peptide across the brain samples taken from the two NHPs. […] Using this filtering criteria, this led to approximately 64,000 matured capsid variants.
# [1] = NHP DRG, NGS, relative to AAV9 control
# [2] = NHP brain, NGS, relative to AAV9 control
# [3] = NHP heart, NGS, relative to AAV9 control
# [4] = NHP liver DNA, NGS, relative to AAV9 control
# [5] = NHP liver RNA, NGS, TTM-001 and TTM-002 matured AAV capsid variants, relative to AAV9 control
# [6] = NHP muscle, NGS, relative to AAV9 control
# [7] = NGS fold-enrichment, DRG, NHP, relative to AAV9
# [8] = NGS fold-enrichment, brain, NHP, relative to AAV9
# [9] = NGS fold-enrichment, heart, NHP, relative to AAV9
# [10] = NGS fold-enrichment, liver DNA, NHP, relative to AAV9
# [11] = NGS fold-enrichment, liver RNA, NHP, relative to AAV9
# [12] = NGS fold-enrichment, muscle, NHP, relative to AAV9
Sequence,"Fold Enrichment relative to AAV9, DRG (NHP) [1] [fold]","Fold Enrichment relative to AAV9, Brain (NHP) [2] [fold]","Fold Enrichment relative to AAV9, Heart (NHP) [3] [fold]","Fold Enrichment relative to AAV9, Liver DNA (NHP) [4] [fold]","Fold Enrichment relative to AAV9, Liver RNA (NHP) [5] [fold]","Fold Enrichment relative to AAV9, Muscle (NHP) [6] [fold]","Fold Enrichment relative to AAV9, DRG (NHP) [7] [fold]","Fold Enrichment relative to AAV9, Brain (NHP) [8] [fold]","Fold Enrichment relative to AAV9, Heart (NHP) [9] [fold]","Fold Enrichment relative to AAV9, Liver DNA (NHP) [10] [fold]","Fold Enrichment relative to AAV9, Liver RNA (NHP) [11] [fold]","Fold Enrichment relative to AAV9, Muscle (NHP) [12] [fold]"
KTINGSGSPHSKAFYIQT,0.000,0.000,0.000,0.239,17.172,0.000,,,,,,
KTINGSGSPHSKAFYRQT,0.000,0.000,0.000,3.577,77.541,0.000,,,,,,
KTINGSGSPHSKAHARQT,0.000,0.000,0.000,1.800,17.075,0.000,,,,,,
KTINGSGSPHSKAKGWQT,,,,,,,0.000,0.000,0.000,1.827,10.450,0.000
KTINGSGSPHSKAKKVQT,,,,,,,0.000,0.000,0.000,3.974,10.102,0.000
KTINGSGSPHSKALRCQT,0.000,0.000,0.000,1.892,17.283,0.000,,,,,,
KTINGSGSPHSKALRHQT,,,,,,,0.000,0.000,0.000,4.532,10.774,0.000
KTINGSGSPHSKALRWQT,0.000,0.000,0.000,5.252,14.118,0.000,,,,,,
KTINGSGSPHSKAPRRQT,0.000,0.000,0.000,3.940,21.645,0.000,,,,,,
KTINGSGSPHSKAQARKT,0.000,0.000,0.000,3.644,96.557,0.000,,,,,,
KTINGSGSPHSKAQCLKT,0.000,0.000,0.000,1.453,49.565,0.000,,,,,,
KTINGSGSPHSKAQFCLT,,,,,,,0.000,0.000,0.000,3.371,10.065,0.000
KTINGSGSPHSKAQFILT,0.000,0.000,0.000,4.208,16.650,0.000,,,,,,
KTINGSGSPHSKAQKCIT,0.000,0.000,0.000,1.887,69.547,0.000,,,,,,
KTINGSGSPHSKAQMQIT,0.000,0.000,0.000,0.371,13.990,0.000,,,,,,
KTINGSGSPHSKAQNFKR,0.000,0.000,0.000,0.964,32.291,0.000,,,,,,
KTINGSGSPHSKAQRFKT,0.000,0.000,0.000,0.139,30.363,0.000,,,,,,
KTINGSGSPHSKAQSAKT,0.000,0.000,0.000,4.200,11.162,0.000,,,,,,
KTINGSGSPHSKAQSRKT,0.000,0.000,0.000,2.715,14.589,0.000,,,,,,
KTINGSGSPHSKAQTCRT,0.000,0.000,0.000,6.369,26.472,0.000,,,,,,
KTINGSGSPHSKAQTHRT,0.000,0.000,0.000,2.917,17.290,0.000,,,,,,
KTINGSGSPHSKAQYSRT,0.000,0.000,0.000,0.956,60.119,0.000,,,,,,
KTINGSGSPHSKAQYVRT,0.000,0.000,0.000,3.275,12.239,0.000,,,,,,
KTINGSGSPHSKARISQT,0.000,0.000,0.000,1.565,12.142,0.000,,,,,,
KTINGSGSPHSKARMYQT,0.000,0.000,0.000,0.313,23.424,0.000,,,,,,
